Measurements from patent US20200360331A1, “COMPOSITIONS COMPRISING 15-HEPE AND/OR 15-HETrE AND METHODS OF TREATING OR PREVENTING CARDIOMETABOLIC DISEASE, METABOLIC SYNDROME, AND/OR RELATED DISEASES” (Afimmune Limited, priority 2019, published 2020).
“Also recorded” adds a separate entry of the source.

Experiments:
UUO mice = assay: UUO study: kidney hydroxyproline content; assay type: in vivo, C57BL/6 mice
Protocol: UUO Surgery: On day 0 of the study, UUO surgery was performed on mice under pentobarbital sodium anesthesia. The mouse's hair was first shaved and then abdomen cut open to exteriorize the mouse's left ureter. The ureter was ligated 4-0 nylon sutures at two points. The mouse's peritoneum and skin were then closed with sutures, and the mouse transferred to a clean cage until recovered from the anesthesia. Sham operated mice had their left ureter exposed but not ligated.
Measurement of Kidney Biochemistry: To quantify kidney hydroxyproline content, frozen left kidney samples were processed by an alkaline-acid hydrolysis method as follows: kidney samples were dissolved in 2 normal (N) sodium hydroxide (NaOH) at 65° C. and autoclaved at 121° C. for 20 minutes. The lysed samples (400 μL) were acid-hydrolyzed with 400 μL of 6N hydrochloride acid (HCl) at 121° C. for 20 minutes, and neutralized with 400 μL of 4N NaOH containing 10 mg/mL of activated carbon. An AC buffer (e.g., 2.2M acetic acid/0.48M citric acid, 400 μL) was added to the samples, followed by centrifugation to collect the supernatant. A standard curve of hydroxyproline was constructed with serial dilutions of trans-4-hydroxy-L-proline (Sigma-Aldrich, USA) starting at 16 μg/mL. The prepared samples and standards (e.g., each 400 μL) were mixed with 400 μL chloramine T solution (Wako Pure Chemical Industries, Japan) and incubated for 25 minutes at room temperature. The samples were then mixed with Ehrlich's solution (e.g., 400 μL) and heated at 65° C. for 20 minutes to develop the color. After samples were cooled on ice and centrifuged to remove precipitates, the optical density of each supernatant was measured at 560 nanometers (nm). The concentrations of hydroxyproline were calculated from the hydroxyproline standard curve. Protein concentrations of kidney samples were determined using a bicinchoninic (BCA) protein assay kit (Thermo Fisher Scientific, USA) and used to normalize the calculated hydroxyproline values. Kidney hydroxyproline contents were expressed as microgram (μg) per mg protein.

TIMP-1 = assay: BDL study: quantitative RT-PCR of liver, TIMP-1; assay type: in vivo, C57BL/6J mice; settings: BDL mice liver
Protocol: Quantitative RT-PCR: Total ribonucleic acid (RNA) was extracted from liver samples using RNAiso (Takara Bio, Japan) according to the manufacturer's instructions. One μg of RNA was reverse-transcribed using a reaction mixture containing 4.4 mM magnesium chloride (MgCl2) (F. Hoffmann-La Roche, Switzerland), 40 U RNase inhibitor (Toyobo, Japan), 0.5 mM dNTP (Promega, USA), 6.28 μM random hexamer (Promega), 5× first strand buffer (Promega), 10 mM dithiothreitol (Invitrogen, USA) and 200 U MMLV-RT (Invitrogen) in a final volume of 20 μL. The reaction was carried out for 1 hour at 37° C., followed by 5 minutes at 99° C. Real-time PCR was performed using real-time PCR DICE and TB Green™ Premix Ex Taq™ II (Takara Bio). To calculate the relative mRNA expression level, the expression of each gene (α-SMA, TIMP-1, TGF-β and Collagen Type 1) was normalized to that of reference gene 36B4 (gene symbol: Rplp0). Information regarding the PCR-primer sets and the plate layout are described in Tables 8 and 9.

[1] = test system: TβR-II (type II TGF-β receptor); assay: Sucrose density gradient analysis in Mv1Lu cells, TβR-II; assay type: cell-based, mink
Protocol: (§1) Sucrose gradient ultracentrifugation and confocal microscopy were used to identify 15-HEPE induced microdomain translocation of TGF-β receptors by sucrose. Sucrose density gradient analysis of TGF-β receptors was conducted in the plasma membranes of Mv1Lu cells (mink lung epithelial cell) treated with 100 μM of 15-HEPE and an equal volume of DMSO (dimethyl sulfoxide) at 37° C. for 0, 1, 4, and 24 hours, and the cell lysates from these treated cells were subjected to sucrose density gradient ultracentrifugation. The sucrose gradient fractions were then analyzed by Western blot analysis using anti-TβR-I (type I TGF-β receptor), anti-TβR-II (type II TGF-β receptor), anti-TβR-III (type III TGF-β receptor, betaglycan), anti-EGFR (epidermal growth factor receptor), and anti-caveolin-1 antibodies. The lipid raft/caveolae, and non-lipid raft microdomain localization of TβR-I, TβR-II, TβR-III, EGFR and caveolin-1 in the plasma membrane of untreated cells or cells treated with 15-HEPE were assessed to determine the effects of 15-HEPE on the membrane microdomain localization of the TGF-β receptors.
A 15-HEPE sucrose density gradient analysis of TGF-β receptors was conducted in the plasma membranes of mink lung epithelial cell (Mv1 Lu) cells treated with 100 μM of 15-HEPE and an equal volume of dimethyl sulfoxide (DMSO) at 37° C. for 0, 1, 4, and 24 hours, and the cell lysates from these treated cells were subjected to sucrose density gradient ultracentrifugation. The sucrose gradient fractions were then analyzed by Western blot analysis using anti-TβR-I (type I TGF-β receptor—FIG. 18C), anti-TβR-II (type II TGF-β receptor—FIG. 18D), anti-TβR-III (type III TGF-β receptor, betaglycan—FIG. 18E), anti-EGFR (epidermal growth factor receptor—FIG. 18F), and anti-caveolin-1 antibodies (FIG. 18G). Fractions 4 to 5 contained lipid rafts/caveolae whereas fractions 7-10 were non-lipid raft fractions. […] Stars (★) indicate 15-HEPE increased abundance of TβR-I (24 hours) in the fraction in comparison with that of the control and shorter treatment durations (FIG. 18C). […] The triangles (▾) indicate translocation and decreased abundance of TβR-II in the fraction in comparison with control cells (FIG. 18D).

[2] = test system: TβR-III (type III TGF-β receptor, betaglycan); assay: Sucrose density gradient analysis in Mv1Lu cells, TβR-III; assay type: cell-based, mink; settings: 100 μM, 0, 1, 4 and 24 hours
Protocol: as §1, with “receptors. […]” for “receptors.”

[3] = test system: EGFR (epidermal growth factor receptor); assay: Sucrose density gradient analysis in Mv1Lu cells, EGFR; assay type: cell-based, mink; settings: 100 μM, 0, 1, 4 and 24 hours
Protocol: as §1, with “receptors. […]” for “receptors.”

With CC/C=C\CC(O)/C=C/C=C\C/C=C\C/C=C\CCCC(=O)O (centres unmarked) [DS102, 15-hydroxy-eicosa-5Z,8Z,11Z,13E,17Z-pentaenoic acid] the “kidney hydroxyproline contents compared with the Vehicle group” value (UUO mice; 50 mg/kg) was “significant decrease”, the Kidney hydroxyproline (UUO mice; 50 mg/kg PO QD Day 0-13, Day 14) was 8.47 ± 2.08 μg/mg total protein and the “kidney hydroxyproline contents compared with the Vehicle group” value (UUO mice; 500 mg/kg) was “significant decreases”. The Kidney hydroxyproline (UUO mice; 500 mg/kg PO QD Day 0-13, Day 14) was 8.59 ± 1.99 μg/mg total protein, the “TIMP-1 mRNA expression level compared with the Vehicle group” value (TIMP-1; 500 mg/kg) was “tended to decrease; also recorded: trend approaching significance” and the “TIMP-1 mRNA expression level vs Vehicle group” value (TIMP-1; DS102 treatment groups) was “no significant differences”. For the same compound, the TIMP-1 gene expression (TIMP-1; relative mRNA normalized to 36B4, 50 mg/kg PO QD Day 0-13) was 43.82 ± 26.19, the TIMP-1 gene expression (TIMP-1; relative mRNA normalized to 36B4, 250 mg/kg PO QD Day 0-13) was 30.65 ± 16.80 and the TIMP-1 gene expression (TIMP-1; relative mRNA normalized to 36B4, 500 mg/kg PO QD Day 0-13) was 16.09 ± 10.16. The TβR-II translocation ([1]; Mv1Lu cells, 100 μM, 1 to 4 hours) was “induced TβR-II translocation”, the TβR-II degradation ([1]; Mv1Lu cells, 100 μM, 24 hours) was “induce degradation” and the “translocation and degradation of type II TGF-β receptors” value ([1]; summary, free acid or ethyl ester form) was “induced translocation and degradation of type II TGF-β receptors”. The “localization and abundance of TβR-III” value [2] was “did not change the localization and abundance” and the “localization and abundance of EGFR” value [3] was “did not change the localization and abundance”.
